Measurements reported in ChEMBL document CHEMBL5316360, “Fatty Acid Conjugated Chalcones as Tubulin Polymerization Inhibitors: Design, Synthesis, QSAR, and Apoptotic and Antiproliferative Activity” (J Nat Prod, 2023).
pIC50: −log10 of the molar value. Each block holds one compound with its values, some of them ahead of it.

How the values were obtained:
Tubulin (Homo sapiens) = Tubulin (Homo sapiens) (UniProt P68371+Q9H4B7+P0DPH7+P68366+Q13509+Q71U36+P04350+Q3ZCM7+P07437+P68363+Q9BQE3+Q6PEY2+Q13885+Q9BVA1+Q9BUF5); experiment: Inhibition of tubulin polymerization in human MCF7 cells assessed as fold increase in tubulin inhibition incubated for 18 to 24 hrs by ELISA method; assay type: cell-based; conditions: time 18-24 hrs
Erythrocyte = experiment: Hemolytic activity in Albino rat RBC at 150 uM incubated for 15 mins by spectrophotometric analysis; assay type: toxicity, cell-based; conditions: 0.25 h
WI-38 = experiment: Cytotoxicity against human WI-38 cells assessed as reduction in cell viability at 10 to 100 uM measured after 24 hrs by MTT assay; assay type: toxicity, cell-based; conditions: wi-38, 24 h, dose 10-100 µM
Tubulin = experiment: Inhibition of tubulin polymerization in human MCF7 cells incubated for 18 to 24 hrs by ELISA method; assay type: cell-based
MCF7 = experiment: Antiproliferative activity against human MCF7 cells assessed as inhibition of cell growth measured after 24 hrs by MTT assay; assay type: functional, cell-based; conditions: MCF7, 24 h
A549 = experiment: Antiproliferative activity against human A549 cells assessed as inhibition of cell growth measured after 24 hrs by MTT assay; assay type: functional, cell-based; conditions: A549, 24 h

fold change (FC) (Tubulin (Homo sapiens)): 2
Compound: CCCCCCCCCC(=O)Nc1ccc(C(=O)/C=C/c2ccc(OC)cc2)cc1

pIC50 (Tubulin): 5.82 | pIC50 (MCF7): 5.68
Compound: CCCCCCCC(=O)Nc1ccc(C(=O)/C=C/c2ccccc2)cc1
Activity (WI-38): Non-Toxic

pIC50 (A549): 6.19
Compound: CCCCCCCCCC(=O)Nc1ccc(C(=O)/C=C/c2ccccc2)cc1
Activity (WI-38): Non-Toxic

fold change (FC) (Tubulin (Homo sapiens)): 2 | pIC50 (A549): 5.49 | pIC50 (MCF7): 5.54
Compound: CCCCCCCCCC(=O)Nc1ccc(C(=O)/C=C/c2ccc(Cl)cc2)cc1
Activity (WI-38): Non-Toxic

pIC50 (Tubulin): 6.10
Compound: CCCCCCCCCCCCCCCCCC(=O)Nc1ccc(C(=O)/C=C/c2ccccc2)cc1
Activity (WI-38): Non-Toxic

fold change (FC) (Tubulin (Homo sapiens)): 2 | pIC50 (A549): 5.68 | pIC50 (MCF7): 5.59
Compound: CCCCCCCCCC(=O)Nc1ccc(C(=O)/C=C/c2ccc(C)cc2)cc1
Activity (WI-38): Non-Toxic

Second part, the compound before the results:

Compound: CCCCCCCCCCCCCCCC(=O)Nc1ccc(C(=O)/C=C/c2ccc(Cl)cc2)cc1
Activity (Erythrocyte): Non-Toxic

Compound: CCCCCCCCCCCCCCCC(=O)Nc1ccc(C(=O)/C=C/c2ccccc2)cc1
Activity (WI-38): Non-Toxic

Compound: CCCCCCCCCCCCCC(=O)Nc1ccc(C(=O)/C=C/c2ccccc2)cc1
Activity (WI-38): Non-Toxic

Compound: CCCCCCCCCCCCCCCC(=O)Nc1ccc(C(=O)/C=C/c2ccc(C)cc2)cc1
Activity (Erythrocyte): Non-Toxic

Compound: CCCCCCCCCCCCCCCC(=O)Nc1ccc(C(=O)/C=C/c2ccc(OC)cc2)cc1
Activity (Erythrocyte): Non-Toxic
